Assay results as given in PMC10101059, “Rational Design of Stapled Antimicrobial Peptides to Enhance Stability and In Vivo Potency against Polymicrobial Sepsis” (Microbiology Spectrum, 2023).
≈ marks a conversion by molar mass, not a printed value. Read-outs that look alike come from different tables or passages of the source. Bridge positions count the residues as written; N and C are the ends. Square brackets hold non-standard residues; d marks the D form. Peptide text beside a SMILES is read from it. R5 = C=CCCC[C@@](C)(N)C(=O)O

Tests used:
P. aeruginosae = test: microbe, parasite or virus in culture; assay type: cell-based, Pseudomonas aeruginosa; details: for TP4-3 and meropenem combined MIC: MIC of each agent in combination
MDR A. baumannii 2998 = test: microbe, parasite or virus in culture; assay type: cell-based, Acinetobacter baumannii; details: MDR 2998; read-out: MBC
How it was run: (§1)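 Broth microdilution per modified NCCLS protocol: 5 × 10^5 CFU/mL bacteria exposed to serial peptide concentrations, 37 ± 2°C for 16 to 20 h. MIC = lowest concentration giving clear wells; clear wells plated on Mueller-Hinton agar overnight at 37 ± 2°C, MBC = lowest concentration with no growth. Serum sensitivity tested in medium with 50% human serum.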

MDR A. baumannii 2088 = test: microbe, parasite or virus in culture; assay type: cell-based, Acinetobacter baumannii; details: MDR 2088; read-out: MBC
How it was run: as §1

MDR A. baumannii 1607 [1] = test: microbe, parasite or virus in culture; assay type: cell-based, Acinetobacter baumannii; details: MDR 1607
How it was run: as §1

MDR A. baumannii 1702 [2] = test: microbe, parasite or virus in culture; assay type: cell-based, Acinetobacter baumannii; details: MDR 1702
How it was run: as §1

MDR A. baumannii 1033 = test: microbe, parasite or virus in culture; assay type: cell-based, Acinetobacter baumannii; details: MDR 1033
How it was run: as §1

MDR A. baumannii 14B0091 = test: microbe, parasite or virus in culture; assay type: cell-based, Acinetobacter baumannii; details: MDR 14B0091
How it was run: as §1

MDR A. baumannii 2982 [3] = test: microbe, parasite or virus in culture; assay type: cell-based, Acinetobacter baumannii; details: MDR 2982
How it was run: as §1

MDR A. baumannii 3618 = test: microbe, parasite or virus in culture; assay type: cell-based, Acinetobacter baumannii; details: MDR 3618
How it was run: as §1

MDR A. baumannii 1019 [4] = test: microbe, parasite or virus in culture; assay type: cell-based, Acinetobacter baumannii; details: MDR 1019
How it was run: as §1

MDR A. baumannii 2997 = test: microbe, parasite or virus in culture; assay type: cell-based, Acinetobacter baumannii; details: MDR 2997
How it was run: as §1

MDR A. baumannii 1607 [5] = test: microbe, parasite or virus in culture; assay type: cell-based, Acinetobacter baumannii; details: for TP4-3 and meropenem combined MIC: MIC of each agent in combination
Procedure: (§2) The FICI was measured using a standard checkerboard microdilution assay ([57]). Two-fold dilutions of antibiotics were made across the x axis, and two-fold peptide dilutions were made across the y axis. Next, bacteria were added at 5 × 10^5 CFU/well (A. baumannii), followed by incubation at 37 ± 2°C for 16 to 20 h. FIC indices were calculated according to the following equations: FICI = FIC1 + FIC2; FIC1 = (MIC12 combined)/MIC1; FIC2 = (MIC12 combined)/MIC2. The combined efficacy was estimated as follows: FICI ≤ 0.5, synergistic; 0.5 to 1, additive; 1 to 2, indifferent; ≥2, antagonistic.

MDR A. baumannii 921 = test: microbe, parasite or virus in culture; assay type: cell-based, Acinetobacter baumannii; details: for TP4-3 and meropenem combined MIC: MIC of each agent in combination
Procedure: as §2

MDR A. baumannii 1702 [6] = test: microbe, parasite or virus in culture; assay type: cell-based, Acinetobacter baumannii; details: for TP4-3 and meropenem combined MIC: MIC of each agent in combination
Procedure: as §2

MDR A. baumannii 2982 [7] = test: microbe, parasite or virus in culture; assay type: cell-based, Acinetobacter baumannii; details: for TP4-3 and meropenem combined MIC: MIC of each agent in combination
Procedure: as §2

MDR A. baumannii 14B001 = test: microbe, parasite or virus in culture; assay type: cell-based, Acinetobacter baumannii; details: for TP4-3 and meropenem combined MIC: MIC of each agent in combination
Procedure: as §2

MDR A. baumannii 1019 [8] = test: microbe, parasite or virus in culture; assay type: cell-based, Acinetobacter baumannii; details: for TP4-3 and meropenem combined MIC: MIC of each agent in combination
Procedure: as §2

MDR A. baumannii 2962 = test: microbe, parasite or virus in culture; assay type: cell-based, Acinetobacter baumannii; details: for TP4-3 and meropenem combined MIC: MIC of each agent in combination
Procedure: as §2

S enterica = test: Checkerboard microdilution assay (FICI); assay type: cell-based, Salmonella enterica; details: MIC of each agent in combination, TP4-3 and M
A. baumannii biofilm = test: Biofilm inhibition assay; assay type: cell-based, Acinetobacter baumannii; details: 0.5× to 4× MIC
Procedure: (i) Biofilm inhibition assay. Fifty μL of 2 × 10^6 CFU/mL A. baumannii bacterial suspension was added to a 96-well plate. Then, 50 μL of peptide/drug (various concentrations) was added, and the plate was incubated for 24 h. The residual solution was removed, and wells were washed, followed by treatment with 100% methanol for 15 min at room temperature. The methanol was then removed, and the wells were allowed to dry at room temperature. Next, the wells were incubated with 100 μL of 0.02% crystal violet for 30 min. After the incubation, the wells were washed with distilled water and dried for an appropriate length of time. Finally, 100 μL of 33% acetic acid was added to the wells for 1 h, followed by reading the absorbance at 595 nm ([55]).

`CC[C@H](C)[C@H](NC(=O)[C@@H](NC(=O)[C@@H](N)Cc1ccccc1)[C@@H](C)CC)C(=O)N[C@]1(C)CCCC=CCCC[C@](C)(C(=O)NCC(=O)N[C@@H](CC(C)C)C(=O)N[C@@H](Cc2ccccc2)C(=O)N[C@@H](CCCCN)C(=O)N[C@@H](CCCCN)C(=O)N[C@@H](CCCCN)C(=O)N[C@@H](C)C(=O)NCC(=O)N[C@@H](C)C(=O)N[C@]2(C)CCCC=CCCC[C@](C)(C(=O)N[C@H](C(=O)N[C@@H](CCCCN)C(=O)N[C@@H](CCCCN)C(=O)O)[C@@H](C)CC)NC(=O)[C@H](CCCCN)NC(=O)[C@H](CCCCN)NC(=O)[C@H](CCCCN)NC2=O)NC(=O)[C@H](CO)NC(=O)[C@H](CCCCN)NC(=O)[C@H](CCCCN)NC1=O` [TP4-3] (H-FII[R5]KKS[R5]GLFKKKAGA[R5]KKK[R5]IKK-OH; staple 4-8, 18-22; N-terminus and C-terminus assumed) was tested, and the “TP4-3 and meropenem combined MIC” value (P. aeruginosae; TP4-3 and D) was 6.25 µM, the “TP4-3 and meropenem combined MIC” value (P. aeruginosae; TP4-3 and M) was 0.78 µM and the MIC (P. aeruginosae; read-out: Single drug treatment MIC) was 25 µM (≈ 72.3 µg/mL). It also gave an MBC (MDR A. baumannii 2998) of 12.5 µM (≈ 36.1 µg/mL), an MBC (MDR A. baumannii 2088) of 6.25 µM (≈ 18.1 µg/mL) and an MIC (MDR A. baumannii 1607 [1]) of 6.25 µM (≈ 18.1 µg/mL). For the same compound, the MBC (MDR A. baumannii 1607 [1]; read-out: MBC) was 12.5 µM (≈ 36.1 µg/mL), the MBC (MDR A. baumannii 1702 [2]) was 3.13 to 6.25 µM and the MIC (MDR A. baumannii 1702 [2]) was 3.13 to 6.25 µM. The MBC (MDR A. baumannii 1033) was 6.25 to 12.5 µM, the MIC (MDR A. baumannii 1033) was 6.25 to 12.5 µM and the MBC (MDR A. baumannii 14B0091) was 3.13 µM (≈ 9.05 µg/mL). For the same compound, the MIC (MDR A. baumannii 14B0091) was 3.13 µM (≈ 9.05 µg/mL), the MBC (MDR A. baumannii 2982 [3]) was 6.25 µM (≈ 18.1 µg/mL) and the MIC (MDR A. baumannii 2982 [3]) was 6.25 µM (≈ 18.1 µg/mL). The MBC (MDR A. baumannii 3618) was 12.5 µM (≈ 36.1 µg/mL), the MBC (MDR A. baumannii 1019 [4]) was 12.5 µM (≈ 36.1 µg/mL) and the MIC (MDR A. baumannii 1019 [4]) was 12.5 µM (≈ 36.1 µg/mL). It also gave an MBC (MDR A. baumannii 2997) of 3.13 to 6.25 µM, an MIC (MDR A. baumannii 2997) of 3.13 to 6.25 µM and an MIC (MDR A. baumannii 1607 [5]; MDR 1607, read-out: Single drug treatment MIC) of 6.25 µM. The “TP4-3 and meropenem combined MIC” value (MDR A. baumannii 1607 [5]; TP4-3 and D) was 3.13 µM, the “TP4-3 and meropenem combined MIC” value (MDR A. baumannii 1607 [5]; TP4-3 and M) was 3.13 µM and the MIC (MDR A. baumannii 921; MDR 921, read-out: Single drug treatment MIC) was 6.25 µM. For the same compound, the “TP4-3 and meropenem combined MIC” value (MDR A. baumannii 921; TP4-3 and D) was 3.13 µM, the “TP4-3 and meropenem combined MIC” value (MDR A. baumannii 921; TP4-3 and M) was 0.78 µM and the MIC (MDR A. baumannii 1702 [6]; MDR 1702, read-out: Single drug treatment MIC) was 6.25 µM. For the same compound, the “TP4-3 and meropenem combined MIC” value (MDR A. baumannii 1702 [6]; TP4-3 and D) was 3.13 µM, the “TP4-3 and meropenem combined MIC” value (MDR A. baumannii 1702 [6]; TP4-3 and M) was 3.13 µM and the MIC (MDR A. baumannii 2982 [7]; MDR 2982, read-out: Single drug treatment MIC) was 6.25 µM. The “TP4-3 and meropenem combined MIC” value (MDR A. baumannii 2982 [7]; TP4-3 and D) was 3.13 µM, the “TP4-3 and meropenem combined MIC” value (MDR A. baumannii 2982 [7]; TP4-3 and M) was 3.13 µM and the MIC (MDR A. baumannii 14B001; MDR 14B001, read-out: Single drug treatment MIC) was 3.13 µM. The “TP4-3 and meropenem combined MIC” value (MDR A. baumannii 14B001; TP4-3 and D) was 3.13 µM, the “TP4-3 and meropenem combined MIC” value (MDR A. baumannii 14B001; TP4-3 and M) was 0.09 µM and the MIC (MDR A. baumannii 1019 [8]; MDR 1019, read-out: Single drug treatment MIC) was 12.5 µM. The “TP4-3 and meropenem combined MIC” value (MDR A. baumannii 1019 [8]; TP4-3 and D) was 3.13 µM, the “TP4-3 and meropenem combined MIC” value (MDR A. baumannii 1019 [8]; TP4-3 and M) was 3.13 µM and the MIC (MDR A. baumannii 2962; MDR 2962, read-out: Single drug treatment MIC) was 6.25 µM. The “TP4-3 and meropenem combined MIC” value (MDR A. baumannii 2962; TP4-3 and D) was 3.13 µM, the “TP4-3 and meropenem combined MIC” value (MDR A. baumannii 2962; TP4-3 and M) was 3.13 µM and the “TP4-3 and meropenem combined MIC” value (S enterica) was 0.39 µM. For the same compound, the “inhibition of biofilm (biomass) formation” value (A. baumannii biofilm) was “substantial inhibition of biomass formation”.
